From ChEMBL document CHEMBL3885881, “DrugMatrix”

Species: Rattus norvegicus
Experiment: DrugMatrix - Regimen: Daily Repeat
Type: toxicity, organism-based, Sprague-Dawley
Set-up: regimen Daily Repeat, gender Male, age 6-8 weeks
Conditions: in vivo, sc, route subcutaneous, […]; for ABSOLUTE BASOPHIL / ABSOLUTE EOSINOPHIL / ABSOLUTE LYMPHOCYTE / ABSOLUTE MONOCYTE / ABSOLUTE SEGMENTED NEUTROPHIL / BASOPHIL / EOSINOPHIL / ERYTHROCYTE COUNT / HEMATOCRIT / HEMOGLOBIN / LEUKOCYTE COUNT / LYMPHOCYTE / MEAN CORPUSCULAR HEMOGLOBIN / MEAN CORPUSCULAR HEMOGLOBIN CONCENTRATION / MEAN CORPUSCULAR VOLUME / MONOCYTE / NEUTROPHIL / NUCLEATED RED BLOOD CELLS / PLATELET COUNT: tissue Blood; for ALANINE AMINOTRANSFERASE / ALBUMIN / ALKALINE PHOSPHATASE / ASPARTATE AMINOTRANSFERASE / BLOOD UREA NITROGEN / CARBON DIOXIDE / CHLORIDE / CHOLESTEROL / CREATINE PHOSPHOKINASE / CREATININE / GLUCOSE / LACTATE DEHYDROGENASE / LIPASE / PHOSPHORUS / POTASSIUM / SODIUM / TOTAL BILIRUBIN / TOTAL PROTEIN / URIC ACID: tissue Plasma
[1] = 0 mg/kg, 72 h, dose level Control, time 3 day
[2] = 0 mg/kg, 120 h, dose level Control, time 5 day
[3] = 18 mg/kg, 72 h, dose level High, time 3 day

CN(C)c1ccc(C(=C2C=CC(=[N+](C)C)C=C2)c2ccc(N(C)C)cc2)cc1.[Cl-] [GENTIAN VIOLET]
ABSOLUTE BASOPHIL [1]: 0 CELLS/uL
ABSOLUTE EOSINOPHIL [1]: 92.33 CELLS/uL
ABSOLUTE LYMPHOCYTE [1]: 12247.5 CELLS/uL
ABSOLUTE MONOCYTE [1]: 389.67 CELLS/uL
ABSOLUTE SEGMENTED NEUTROPHIL [1]: 1320.5 CELLS/uL
BASOPHIL [1]: 0%
EOSINOPHIL [1]: 0.67%
ERYTHROCYTE COUNT [1]: 5.45 x10E6/uL
HEMATOCRIT [1]: 34.85%
HEMOGLOBIN [1]: 12.97 G/DL
LEUKOCYTE COUNT [1]: 14.05 x10E3/uL
LYMPHOCYTE [1]: 87.33%
MEAN CORPUSCULAR HEMOGLOBIN [1]: 23.78 pg
MEAN CORPUSCULAR HEMOGLOBIN CONCENTRATION [1]: 37.22 G/DL
MEAN CORPUSCULAR VOLUME [1]: 63.93 fL
MONOCYTE [1]: 2.67%
NEUTROPHIL [1]: 9.33%
NUCLEATED RED BLOOD CELLS [1]: 0 /100WBC
PLATELET COUNT [1]: 1174 x10E3/uL
ALANINE AMINOTRANSFERASE [1]: 48.83 u/L
ALBUMIN [1]: 4.23 G/DL
ALKALINE PHOSPHATASE [1]: 351.5 u/L
ASPARTATE AMINOTRANSFERASE [1]: 90 u/L
BLOOD UREA NITROGEN [1]: 15.33 mg/dL
CARBON DIOXIDE [1]: 23 mmol/L
CHLORIDE [1]: 103.5 MEQ/L
CHOLESTEROL [1]: 70.5 mg/dL
CREATINE PHOSPHOKINASE [1]: 651.83 u/L
CREATININE [1]: 0.22 mg/dL
GLUCOSE [1]: 180.67 mg/dL
LACTATE DEHYDROGENASE [1]: 165 u/L
LIPASE [1]: 9.33 u/L
PHOSPHORUS [1]: 12.03 mg/dL
POTASSIUM [1]: 6.17 MEQ/L
SODIUM [1]: 142.62 MEQ/L
TOTAL BILIRUBIN [1]: 0.2 mg/dL
TOTAL PROTEIN [1]: 5.73 G/DL
URIC ACID [1]: 1.77 mg/dL
ABSOLUTE BASOPHIL [2]: 0 CELLS/uL
ABSOLUTE EOSINOPHIL [2]: 0 CELLS/uL
ABSOLUTE LYMPHOCYTE [2]: 12736.67 CELLS/uL
ABSOLUTE MONOCYTE [2]: 253.5 CELLS/uL
ABSOLUTE SEGMENTED NEUTROPHIL [2]: 1193.17 CELLS/uL
BASOPHIL [2]: 0%
EOSINOPHIL [2]: 0%
ERYTHROCYTE COUNT [2]: 5.72 x10E6/uL
HEMATOCRIT [2]: 36.05%
HEMOGLOBIN [2]: 13.62 G/DL
LEUKOCYTE COUNT [2]: 14.18 x10E3/uL
LYMPHOCYTE [2]: 89.33%
MEAN CORPUSCULAR HEMOGLOBIN [2]: 23.83 pg
MEAN CORPUSCULAR HEMOGLOBIN CONCENTRATION [2]: 37.8 G/DL
MEAN CORPUSCULAR VOLUME [2]: 63.05 fL
MONOCYTE [2]: 1.83%
NEUTROPHIL [2]: 8.83%
NUCLEATED RED BLOOD CELLS [2]: 0 /100WBC
PLATELET COUNT [2]: 1322.17 x10E3/uL
ALANINE AMINOTRANSFERASE [2]: 48.83 u/L
ALBUMIN [2]: 4.27 G/DL
ALKALINE PHOSPHATASE [2]: 295.17 u/L
ASPARTATE AMINOTRANSFERASE [2]: 75.83 u/L
BLOOD UREA NITROGEN [2]: 15.5 mg/dL
CARBON DIOXIDE [2]: 30.5 mmol/L
CHLORIDE [2]: 102.33 MEQ/L
CHOLESTEROL [2]: 76.17 mg/dL
CREATINE PHOSPHOKINASE [2]: 205.5 u/L
CREATININE [2]: 0.2 mg/dL
GLUCOSE [2]: 149.67 mg/dL
LACTATE DEHYDROGENASE [2]: 124.5 u/L
LIPASE [2]: 10 u/L
PHOSPHORUS [2]: 10.93 mg/dL
POTASSIUM [2]: 6.59 MEQ/L
SODIUM [2]: 143.1 MEQ/L
TOTAL BILIRUBIN [2]: 0.2 mg/dL
TOTAL PROTEIN [2]: 6.05 G/DL
URIC ACID [2]: 1.45 mg/dL
ABSOLUTE BASOPHIL [3]: 0 CELLS/uL
ABSOLUTE EOSINOPHIL [3]: 0 CELLS/uL
ABSOLUTE LYMPHOCYTE [3]: 12052.33 CELLS/uL
ABSOLUTE MONOCYTE [3]: 236.33 CELLS/uL
ABSOLUTE SEGMENTED NEUTROPHIL [3]: 1544.67 CELLS/uL
BASOPHIL [3]: 0%
EOSINOPHIL [3]: 0%
ERYTHROCYTE COUNT [3]: 5.45 x10E6/uL
HEMATOCRIT [3]: 33.5%
HEMOGLOBIN [3]: 12.27 G/DL
LEUKOCYTE COUNT [3]: 13.83 x10E3/uL
LYMPHOCYTE [3]: 87%
MEAN CORPUSCULAR HEMOGLOBIN [3]: 22.5 pg
MEAN CORPUSCULAR HEMOGLOBIN CONCENTRATION [3]: 36.67 G/DL
MEAN CORPUSCULAR VOLUME [3]: 61.5 fL
MONOCYTE [3]: 1.67%
NEUTROPHIL [3]: 11.33%
NUCLEATED RED BLOOD CELLS [3]: 0 /100WBC
PLATELET COUNT [3]: 1084 x10E3/uL
ALANINE AMINOTRANSFERASE [3]: 34.67 u/L
ALBUMIN [3]: 2.67 G/DL
ALKALINE PHOSPHATASE [3]: 220 u/L
ASPARTATE AMINOTRANSFERASE [3]: 68.67 u/L
BLOOD UREA NITROGEN [3]: 12 mg/dL
CARBON DIOXIDE [3]: 19 mmol/L
CHLORIDE [3]: 103.5 MEQ/L
CHOLESTEROL [3]: 66.33 mg/dL
CREATINE PHOSPHOKINASE [3]: 157.33 u/L
CREATININE [3]: 0.17 mg/dL
GLUCOSE [3]: 122.33 mg/dL
LACTATE DEHYDROGENASE [3]: 148 u/L
LIPASE [3]: 7.33 u/L
PHOSPHORUS [3]: 8.5 mg/dL
POTASSIUM [3]: 6.06 MEQ/L
SODIUM [3]: 145.95 MEQ/L
TOTAL BILIRUBIN [3]: 0.13 mg/dL
TOTAL PROTEIN [3]: 4.7 G/DL
URIC ACID [3]: 1.1 mg/dL
